According to article PMC7887271, “Fast acting allosteric phosphofructokinase inhibitors block trypanosome glycolysis and cure acute African trypanosomiasis in mice” (Nature Communications, 2021):
Like-named read-outs stand apart in the source and are kept apart here.

Assays:
[1] = tested on: HepG2 cells; test: HepG2 cytotoxicity assay; assay type: cell-based, human; details: for Selectivity: EC50 HepG2 divided by EC50 T. b. brucei parasite killing; for EC50: Homo sapiens, HepG2, 72 h, CellTitreGlo
Procedure: (§1) A HepG2 cytotoxicity assay was used to determine a cellular selectivity index. HepG2 cells were seeded into 96-well plates in EMEM medium. Compounds were assessed for their effect upon cellular viability (Supplementary Methods 5.1). Inhibition of CYP450 was determined using kits from BD Biosciences (Supplementary Methods 5.2). Metabolic stability was determined using mouse […] tested at a single concentration of 5 µM. Plasma protein binding was determined using mouse and human plasma at a single concentration of 10 µM (Supplementary Methods 5.4). All PK studies in mice were carried out by Pharmidex (Supplementary Methods 6.1).
To determine a cellular selectivity index, a HepG2 Cytotoxicity Assay was used. HepG2 cells (a human hepatocyte carcinoma cell line) were seeded into 96 well plates in EMEM media. Compounds were assessed for their effect upon cellular viability (6 point dose response curves). After 72h the numbers of viable cells were detected using Promega CellTitreGlo reagent to measure ATP using the luciferase/luciferin detection system. The selectivity index is calculated as the EC50 in the HepG2 assay divided by the EC50 determined in the T. b. brucei parasite killing assay.

[2] = Plasma protein binding, human plasma; assay type: in vitro ADME; details: equilibrium dialysis, read-out: Human plasma protein binding fu(%)
Procedure: as §1
Compounds were tested for protein binding using mouse and human plasma at a single concentration of 10 µM and measured by equilibrium dialysis between plasma and buffer. The amount of parent was determined on both sides of the membrane after incubating for 4 hours at 37 °C. The samples were crashed with acetonitrile and put through protein precipitation plates. The eluent was analysed by LC/MS or LC/MS/MS. Output was percentage bound.

[3] = Pharmacokinetic studies in mice (IV and PO); assay type: in vivo, female CD-1 mice; details: female, CD-1, plasma, mouse; for AUC(0-inf): read-out: AUC (infinity); for clearance: read-out: CL/kg (converted); for half-life: read-out: Elimination t1/2 (converted); for Vd: read-out: Vd (area); for bioavailability: PO 10 mg kg^−1 vs IV 1 mg kg^−1, read-out: Bioavailability (F%)
Procedure: PK parameters for the lead compounds were determined using three mice per data point (Supplementary Methods 6.1).
Blood samples were collected from terminal cardiac puncture at 0.08 (IV only), 0.25, 0.5, 1 (PO only), 2, 4, 8 and 24 hour time points. The whole blood was centrifuged to obtain plasma. Brains were also collected following cardiac perfusion from both sets of animals at 2 hours. Analysis of the biological samples was carried out by the company Selcia. Plasma proteins were precipitated by addition of PBS (1 volume) followed by 3 volumes of acetonitrile containing internal standard (verapamil). Following filtration through a protein precipitation plate the eluent was dried under nitrogen and re-suspended in mobile phase prior to analysis. Individual brains were homogenised in PBS and diluted to 10% w/v and divided into aliquots consisting of brain homogenate (1 volume, 0.3 ml) and 3 volumes (0.9 ml) of acetonitrile containing internal standard. Samples were centrifuged and supernatants removed and taken through a protein precipitation plate alongside an appropriate standard. Eluents were dried under nitrogen and re-suspended in mobile phase prior to analysis. Eluents were analysed by LC-MS/MS using a Phenomenex Gemini NX column (C18,30 x 2.1 mm, 3 micron). Analysis of the data was carried out using PK solutions software.

[4] = Tolerance studies and plasma levels after multiple oral dosing; assay type: in vivo; details: mice, oral
Procedure: All efficacy studies were carried out using CD-1 mice in accordance with the United Kingdom Animals (Scientific Procedures) Act (1986) under Home Office regulations. Studies were performed in SPF facilities at the University of Edinburgh under licence PPL 70/8102 and at the University of Glasgow under PPL 60/4442. The experiments were approved by the local ethics committees of the respective universities. Dosing regimens used in efficacy studies were first tested for tolerance in female CD-1 mice (University of Edinburgh; 6–8 weeks old). Animals were dosed orally by gavage with CTCB compounds following the dosing regimen for each individual experiment (n = 5; Supplementary Methods 6.2).
Dosing regimens used in efficacy studies were first tested for tolerance in female CD-1 mice (University of Edinburgh; 6-8 weeks old). Animals were dosed orally by gavage with CTCB compounds following the dosing regimen for each individual experiment (n=5) as indicated. Compounds were administered in a mixture containing Cremophor EL: EtOH: D-PBS (30:10:60 v/v). Animals were monitored for up to 8 hours post-dosing. On the final day of dosing, 2 hours after the final dose, whole blood was harvested from three mice via cardiac puncture, under gaseous isoflurane anaesthesia, to obtain plasma for analyses. The remaining two mice were monitored for several days post dosing. To avoid coagulation, 100 μl of 2% sodium citrate was utilised in the syringe during the procedure and blood samples subsequently transferred to heparin coated microtubules. Blood samples were centrifuged at 800 x g for 10 minutes at room temperature. The supernatant containing the plasma was transferred to a fresh tube for determination of compound levels and further PK analysis.

| Compound | Selectivity [1] | EC50 [1] [µM] | fraction unbound at 4 h, 10 µM [2] | AUC(0-inf) ([3]; IV 1 mg kg^−1) [ng·h/mL] | clearance ([3]; IV 1 mg kg^−1) [mL/min/kg] | half-life ([3]; IV 1 mg kg^−1) [h] | Vd ([3]; IV 1 mg kg^−1) [L/kg] | Cmax ([3]; PO 10 mg kg^−1) [ng/mL] | Tmax ([3]; PO 10 mg kg^−1) [h] | AUC(0-inf) ([3]; PO 10 mg kg^−1) [ng·h/mL] | bioavailability [3] [%] | tolerance of high doses [4] |
| --- | --- | --- | --- | --- | --- | --- | --- | --- | --- | --- | --- | --- |
| CN(C)CCn1ccc2c(ccn2Cc2ccc(Cl)c(Br)c2)c1=O [CTCB-470, 1-[(3-Bromo-4-chlorophenyl)methyl]-5-[2-(dimethylamino)ethyl] pyrrolo[3,2-c]pyridin-4-one] | 39 | 12.3 | 0.032 | 657 | 25 | 3.1 | 6.9 | 393 | 0.5 | 1560 | 24 | well tolerated |
| CN(C)CCn1ccc2c(ccn2Cc2ccc(F)c(Br)c2)c1=O [CTCB-508, 1-[(3-Bromo-4-fluorophenyl)methyl]-5-[2-(dimethylamino)ethyl] pyrrolo[3,2-c]pyridin-4-one] | 111 | 33.4 | 0.21 | 349 | 45 | 0.7 | 2.9 | 1330 | 2 | 4170 | 119 | well tolerated |
